# Source: US20050090506A1, “Insecticidal perfluoroalkylthiazole derivatives” (Nippon Soda Co., Ltd., priority 2003, published 2005)
row,melting point,SMILES
1,154 to 155 °C,"CCOC(=O)c1sc(NC(=O)c2cc(C(F)(F)F)cc(C(F)(F)F)c2)nc1C(F)(F)C(F)(F)F [Compound 68, N-(5-Ethoxycarbonyl-4-pentafluoroethylthiazol-2-yl)-3,5-bis-trifluoromethylbenzamide]"
2,133 to 134 °C,"O=C(Nc1nc(C(F)(F)C(F)(F)F)c(CCl)s1)c1cc(C(F)(F)F)cc(C(F)(F)F)c1 [Compound 47, N-(5-chloromethyl-4-pentafluoroethylthiazol-2-yl)-3,5-bis-trifluoromethylbenzamide]"
3,202 to 203 °C,"CCOC(=O)c1sc(NC(=O)c2ccc(C)cc2)nc1C(F)(F)C(F)(F)F [Compound 2, N-(5-Ethoxycarbonyl-4-pentafluoroethylthiazol-2-yl)-4-methylbenzamide]"
